Data taken from patent US9365540B2, “Benzimidazole derivatives as MCH receptor antagonists” (Takeda Pharmaceutical Company Limited, priority 2012, dated 2016).

Legend:
[1] = molecular target: T1, human MCH receptor 1 (MCHR1) (Homo sapiens, UniProt Q99705); test: human MCH receptor 1 (MCHR1) competitive binding assay with [125I]-MCH(4-19); settings: test compound 0.1 μM, human MCHR1-expressing CHO cell membrane fraction, read-out: Binding inhibition rate % (0.1 μM)
T1 construct: expressed in transfected cells; host or cells: CHO cell clone 57 (membrane fraction)
Protocol: Determination of human MCH receptor 1 (MCHR1) competitive inhibitory activity of test compound using binding assay
1. Preparation of Membrane Fraction
Using human MCHR1 (=SLC-1 receptor)-expressing CHO cell clone 57 described in WO01/82925, MCHR1-expressing CHO cell membrane fractions were prepared by the following method.
In phosphate buffered saline (pH 7.4) supplemented with 5 mM EDTA (ethylenediaminetetraacetic acid) were respectively suspended human MCHR1-expressing CHO cells (1×10^8 cells) and centrifuged. Homogenate buffer (10 mL, 10 mM NaHCO3, 5 mM EDTA, pH 7.5, 0.5 mM PMSF (phenylmethylsulfonyl fluoride), 20 mg/L leupeptin, 4 mg/L E-64, 1 mg/L pepstatin A) was added to the pellets of the cells and, using Polytron Homogenizer, the mixture was homogenated. The supernatant obtained after centrifugation at 400×g for 10 min was further centrifuged at 100,000×g for 1 hr to give precipitate of the membrane fraction. The precipitate were suspended in 2 mL of assay buffer [20 mM Tris-HCl (pH 7.5), 5 mM EDTA, 0.5 mM PMSF, 20 mg/L leupeptin, 4 mg/L E-64, 1 mg/L pepstatin A]. The membrane fractions were suspended in assay buffer to a protein concentration of 2 mg/mL, and after dispensing, preserved at −80° C. and used upon thawing each time when in use.
The MCHR1 ligand binding inhibitory activity of the test compound was determined as follows.
An MCHR1-expressing CHO cell membrane fraction (173 μL) diluted with an assay buffer was dispensed to a 96 well polypropylene plate (3363, Corning). DMSO solution (2 μL), 33 μM cold MCH(1-19) diluted with DMSO solution (2 μL), or a test compound solution diluted with DMSO solution to various concentrations (2 μL) was added, and lastly, [^125I]-MCH (4-19) diluted with assay buffer (hereinafter, sometimes to be referred to as “hot MCH”, 25 μL) was added to each well. The mixture was reacted with stirring at room temperature for 1 hr, and the plate was set on FilterMate Harvester (PerkinElmer). Using a treating glass filter plate (GF/C, PerkinElmer) with polyethyleneimine, which had been previously set, the plate was suction-filtered and washed three times with washing buffer (50 mM Tris-HCl buffer pH 7.5). The glass filter plate was dried, MicroScinti0 (PerkinElmer) was added at 25 μL/well, and the resulting radioactivity was measured by TopCount liquid scintillation counter (PerkinElmer). The binding inhibition rate of the test compound was calculated by the following formula. Binding inhibition (%)=100−(radioactivity upon addition of test compound and hot MCH−radioactivity upon addition of cold MCH and hot MCH solution)/(radioactivity upon addition of DMSO solution and hot MCH−radioactivity upon addition of cold MCH and hot MCH solution)×100
The binding inhibition rates (%) of test compounds (0.1 μM) as measured using human MCHR1-expressing CHO cell are shown in Table 2.

[2] = molecular target: T2, human MCHR1 (Homo sapiens, UniProt Q99705); test: MCH receptor 1 antagonistic activity, Ca2+ mobilization assay; format: cell-based; settings: CHO, test compound 0.1 μM; human MCHR1-expressing CHO cells (clone #4); ligand MCH(4-19) 2 nM; read-out: Inhibitory rate % (0.1 μM)
T2 construct: expressed in transfected cells; host or cells: CHO dhfr- cells, clone #4
Protocol: Measurement of MCH Receptor 1 Antagonistic Activity of Test Compound Using Ca^2+ Mobilization Assay Using an expression vector plasmid introduced with human MCHR1 gene for expression in animal cells, human MCHR1 gene was introduced into CHO cells (CHO dhfr^−) by Lipofectamine LTX (Invitrogen). The cells were cultured in selection MEMα medium [445 mL of MEMα medium without nucleic acid and added with 5 mL of Penicillin-Streptomycin (Invitrogen) and 50 mL of dialyzed fetal bovine serum]. Colony 24 clones grown in the selection medium, which were human MCHR1 gene-expressing CHO cell candidates, were selected. […] In the following test, this human MCHR1-expressing CHO cell (clone #4) was used. An integrated dispensing function fluorometer (CellLux, PerkinElmer) was used for Ca^2+ mobilization assay. […] The medium was removed, and the cells were washed with phosphate buffered saline (PBS). […] The plate was set on a plate reader. […] The inhibition rates (%) of test compounds (0.1 μM) as antagonist activity measured using human MCHR1-expressing CHO cells (clone #4) are shown in the following Table 3.

T2 sequence (Q99705 whole entry): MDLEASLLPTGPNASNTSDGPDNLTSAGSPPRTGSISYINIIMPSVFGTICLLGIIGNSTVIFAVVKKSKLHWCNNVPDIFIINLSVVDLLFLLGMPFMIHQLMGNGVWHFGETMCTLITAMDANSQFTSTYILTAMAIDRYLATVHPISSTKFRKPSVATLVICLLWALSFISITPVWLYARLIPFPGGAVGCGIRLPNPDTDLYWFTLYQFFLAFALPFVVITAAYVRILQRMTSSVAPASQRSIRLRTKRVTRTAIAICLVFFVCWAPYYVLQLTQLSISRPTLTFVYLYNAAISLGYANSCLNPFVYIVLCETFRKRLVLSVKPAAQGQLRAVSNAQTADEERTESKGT
T1 sequence (Q99705 whole entry): as above

inhibition at 0.1 µM [1] [%] | inhibition at 0.1 µM [2] [%] | Structure (SMILES)
91 | 99 | Cn1c([C@@H]2C[C@@H]2C(C)(C)O)nc2ccc(-n3ccc(OCc4ccc(Cl)cc4)cc3=O)cc21 (racemic) [Example 80, 4-((4-Chlorobenzyl)oxy)-1-(2-((1RS,2SR)-2-(2-hydroxypropan-2-yl)cyclopropyl)-1-methyl-1H-benzimidazol-6-yl)pyridin-2(1H)-one]
69 | 94 | Cn1c([C@H]2C[C@H]2C#N)nc2ccc(-n3ccc(OCc4ccc(Cl)cc4)cc3=O)cc21 (racemic) [Example 148, (1RS,2SR)-2-(6-(4-((4-Chlorobenzyl)oxy)-2-oxopyridin-1(2H)-yl)-1-methyl-1H-benzimidazol-2-yl)cyclopropanecarbonitrile]
64 | 69 | Cn1c(C2CC2)nc2ccc(-n3ccc([C@@H]4C[C@H]4c4ccc(Cl)cc4)cc3=O)cc21 (racemic) [Example 253, 4-((1RS,2RS)-2-(4-chlorophenyl)cyclopropyl)-1-(2-cyclopropyl-1-methyl-1H-benzimidazol-6-yl)pyridin-2(1H)-one]
52 | 61 | Cn1c(C(=O)C2CC2)nc2ccc(-n3ccc(OCc4ccc(F)cc4)cc3=O)cc21 [Example 31, 1-(2-(Cyclopropylcarbonyl)-1-methyl-1H-benzimidazol-6-yl)-4-((4-fluorobenzyl)oxy)pyridin-2(1H)-one]
59 | 51 | CC(C)Cc1nc2ccc(-n3ccc(OCc4ccc(Cl)cc4)cc3=O)cc2n1C [Example 37, 4-((4-Chlorobenzyl)oxy)-1-(2-isobutyl-1-methyl-1H-benzimidazol-6-yl)pyridin-2(1H)-one]
69 | 100 | CC1CC1c1nc2ccc(-n3ccc(OCc4ccc(F)cc4)cc3=O)cc2n1C (stereo not drawn) [Example 43, 4-((4-Fluorobenzyl)oxy)-1-(1-methyl-2-(2-methylcyclopropyl)-1H-benzimidazol-6-yl)pyridin-2(1H)-one]
53 | 78 | Cc1c(C2CC2)nc2ccc(-n3ncc(OCc4ccc(Cl)cc4)cc3=O)cn12 [Example 55, 5-((4-Chlorobenzyl)oxy)-2-(2-cyclopropyl-3-methylimidazo[1,2-a]pyridin-6-yl)pyridazin-3(2H)-one]
63 | 57 | Cn1c(C2CC2(F)F)nc2ccc(-n3ccc(OCc4ccc(Cl)cc4)cc3=O)cc21 (stereo not drawn) [Example 62, 4-((4-Chlorobenzyl)oxy)-1-(2-(2,2-difluorocyclopropyl)-1-methyl-1H-benzimidazol-6-yl)pyridin-2(1H)-one]
76 | 99 | CCCc1nc2ccc(-n3ccc(OCc4ccc(F)cc4)cc3=O)cc2n1C [Example 64, 4-((4-Fluorobenzyl)oxy)-1-(1-methyl-2-propyl-1H-benzimidazol-6-yl)pyridin-2(1H)-one]
57 | 84 | CC(=O)c1nc2ccc(-n3ccc(OCc4ccc(F)cc4)cc3=O)cc2n1C [Example 66, 1-(2-Acetyl-1-methyl-1H-benzimidazol-6-yl)-4-((4-fluorobenzyl)oxy)pyridin-2(1H)-one]
65 | 58 | Cn1c(-c2cnco2)nc2ccc(-n3ccc(OCc4ccc(F)cc4)cc3=O)cc21 [Example 69, 4-((4-Fluorobenzyl)oxy)-1-(1-methyl-2-(1,3-oxazol-5-yl)-1H-benzimidazol-6-yl)pyridin-2(1H)-one]
79 | 35 | Cc1c(C2CC2)nc2ccc(-n3ccc(OCc4ccc(Cl)cc4)nc3=O)cn12 [Example 70, 4-((4-Chlorobenzyl)oxy)-1-(2-cyclopropyl-3-methylimidazo[1,2-a]pyridin-6-yl)pyrimidin-2(1H)-one]
72 | 43 | Cn1c(C2CC2)nc2ccc(-n3ccc(OCc4ccccc4F)cc3=O)cc21 [Example 71, 1-(2-Cyclopropyl-1-methyl-1H-benzimidazol-6-yl)-4-((2-fluorobenzyl)oxy)pyridin-2(1H)-one]
80 | 58 | Cn1c(C2CC2)nc2ccc(-n3ccc(OCc4cccc(F)c4)cc3=O)cc21 [Example 72, 1-(2-Cyclopropyl-1-methyl-1H-benzimidazol-6-yl)-4-((3-fluorobenzyl)oxy)pyridin-2(1H)-one]
84 | 80 | Cn1c(C2CC2)nc2ccc(-n3ccc(OCc4ccsc4)cc3=O)cc21 [Example 75, 1-(2-Cyclopropyl-1-methyl-1H-benzimidazol-6-yl)-4-(3-thienylmethoxy)pyridin-2(1H)-one]
73 | 46 | Cc1ncoc1-c1nc2ccc(-n3ccc(OCc4ccc(F)cc4)cc3=O)cc2n1C [Example 89, 4-((4-Fluorobenzyl)oxy)-1-(1-methyl-2-(4-methyl-1,3-oxazol-5-yl)-1H-benzimidazol-6-yl)pyridin-2(1H)-one]
67 | 70 | Cn1c(CC2CC2)nc2ccc(-n3ccc(OCc4ccc(Cl)cc4)cc3=O)cc21 [Example 91, 4-((4-Chlorobenzyl)oxy)-1-(2-(cyclopropylmethyl)-1-methyl-1H-benzimidazol-6-yl)pyridin-2(1H)-one]
75 | 97 | CCc1nc2ccc(-n3ccc(OCc4ccc(Cl)cc4)cc3=O)cc2n1C [Example 102, 4-((4-Chlorobenzyl)oxy)-1-(2-ethyl-1-methyl-1H-benzimidazol-6-yl)pyridin-2(1H)-one]
45 | – | CCc1nc2ccc(-n3ccc(OCc4ccc(Cl)c(F)c4)cc3=O)cc2n1C [Example 229, 4-((4-Chloro-3-fluorobenzyl)oxy)-1-(2-ethyl-1-methyl-1H-benzimidazol-6-yl)pyridin-2(1H)-one]
73 | – | Cn1c(C2CC2)nc2ccc(-n3ccc(OCc4cc(Br)c(Cl)s4)cc3=O)cc21 [Example 232, 4-((4-Bromo-5-chloro-2-thienyl)methoxy)-1-(2-cyclopropyl-1-methyl-1H-benzimidazol-6-yl)pyridin-2(1H)-one]
67 | – | CCc1nc2ccc(-n3ccc(OCc4ccc(C(F)(F)F)s4)cc3=O)cc2n1C [Example 233, 1-(2-Ethyl-1-methyl-1H-benzimidazol-6-yl)-4-((5-(trifluoromethyl)-2-thienyl)methoxy)pyridin-2(1H)-one]
50 | – | CCc1nc2ccc(-n3ccc(OCc4ccsc4F)cc3=O)cc2n1C [Example 234, 1-(2-Ethyl-1-methyl-1H-benzimidazol-6-yl)-4-((2-fluoro-3-thienyl)methoxy)pyridin-2(1H)-one]
52 | – | CCc1nc2ccc(-n3ccc(OCc4ccc(F)s4)cc3=O)cc2n1C [Example 246, 1-(2-Ethyl-1-methyl-1H-benzimidazol-6-yl)-4-((5-fluorothiophen-2-yl)methoxy)pyridin-2(1H)-one]
85 | – | Cn1c(C2CC2)nc2ccc(-n3ccc(OCc4ccc5sccc5c4)cc3=O)cc21 [Example 255, 4-(1-Benzothiophen-5-ylmethoxy)-1-(2-cyclopropyl-1-methyl-1H-benzimidazol-6-yl)pyridin-2(1H)-one]
